Measurements taken from US12595253B2, “Benzamides of pyrazolylamino-pyrimidinyl derivatives, and compositions and methods thereof” (LYNK PHARMACEUTICALS CO. LTD., priority 2019, dated 2026).

What was measured:
JAK1 = molecular target: T1, JAK1 (Homo sapiens, UniProt P23458); assay: JAK1 microfluidic kinase assay (Caliper EZ Reader II, FAM labeled peptide substrate); type: biochemical; conditions: IC50 JAK1 (5 nM) (1 m MATP), JAK1 5 nM, 1 mM ATP
T1 construct: purchased Carna Biosciences
Method: (§1) Compounds were tested against JAK1, JAK2, JAK2V617F and TYK2. Assay Formats: JAK activity was determined in the reaction buffer 50 mM HEPES, 0.01% Brij35, 10 mM MgCl2, 2 mM DTT by a microfluidic assay. The phosphorylation of a FAM labeled peptide substrate was monitored in the Caliper EZ Reader II (Perkin Elmer). The assay condition for each batch of enzyme (Carna Biosciences) was optimized to obtain 10% conversion rate of peptide substrate. The test compounds were dissolved in DMSO to a stock concentration of 10 mM. 3-fold serially diluted compounds with top concentration of 5 μM were pre-incubated with JAK1, JAK2, JAK2V617F or TYK2 at indicated concentrations for 10 min at ambient temperature. The final DMSO concentration of assay mixture was 1%. […] The reaction was stopped by adding 50 mM EDTA. […] The percent inhibition was calculated by the following formula. % Inhibition=(Conversionmax−Conversionsample)/(Conversionmax−Conversionmin)*100 • Conversionmax means the conversion rate in the positive well without addition of compound • Conversionmin means the conversion rate in the well without addition of enzyme • Conversionsample means the conversion rate of test compounds The dose-response (percent inhibition) curve was plotted and IC50 values were determined by GraphPad software.

JAK2V617F = molecular target: T2, JAK2V617F (Homo sapiens, UniProt O60674, V617F); assay: JAK2V617F microfluidic kinase assay (Caliper EZ Reader II, FAM labeled peptide substrate); type: biochemical; conditions: JAK2V617F 2.5 nM, 1 mM ATP
T2 construct: purchased Carna Biosciences
T2 sequence (O60674 whole entry V617F): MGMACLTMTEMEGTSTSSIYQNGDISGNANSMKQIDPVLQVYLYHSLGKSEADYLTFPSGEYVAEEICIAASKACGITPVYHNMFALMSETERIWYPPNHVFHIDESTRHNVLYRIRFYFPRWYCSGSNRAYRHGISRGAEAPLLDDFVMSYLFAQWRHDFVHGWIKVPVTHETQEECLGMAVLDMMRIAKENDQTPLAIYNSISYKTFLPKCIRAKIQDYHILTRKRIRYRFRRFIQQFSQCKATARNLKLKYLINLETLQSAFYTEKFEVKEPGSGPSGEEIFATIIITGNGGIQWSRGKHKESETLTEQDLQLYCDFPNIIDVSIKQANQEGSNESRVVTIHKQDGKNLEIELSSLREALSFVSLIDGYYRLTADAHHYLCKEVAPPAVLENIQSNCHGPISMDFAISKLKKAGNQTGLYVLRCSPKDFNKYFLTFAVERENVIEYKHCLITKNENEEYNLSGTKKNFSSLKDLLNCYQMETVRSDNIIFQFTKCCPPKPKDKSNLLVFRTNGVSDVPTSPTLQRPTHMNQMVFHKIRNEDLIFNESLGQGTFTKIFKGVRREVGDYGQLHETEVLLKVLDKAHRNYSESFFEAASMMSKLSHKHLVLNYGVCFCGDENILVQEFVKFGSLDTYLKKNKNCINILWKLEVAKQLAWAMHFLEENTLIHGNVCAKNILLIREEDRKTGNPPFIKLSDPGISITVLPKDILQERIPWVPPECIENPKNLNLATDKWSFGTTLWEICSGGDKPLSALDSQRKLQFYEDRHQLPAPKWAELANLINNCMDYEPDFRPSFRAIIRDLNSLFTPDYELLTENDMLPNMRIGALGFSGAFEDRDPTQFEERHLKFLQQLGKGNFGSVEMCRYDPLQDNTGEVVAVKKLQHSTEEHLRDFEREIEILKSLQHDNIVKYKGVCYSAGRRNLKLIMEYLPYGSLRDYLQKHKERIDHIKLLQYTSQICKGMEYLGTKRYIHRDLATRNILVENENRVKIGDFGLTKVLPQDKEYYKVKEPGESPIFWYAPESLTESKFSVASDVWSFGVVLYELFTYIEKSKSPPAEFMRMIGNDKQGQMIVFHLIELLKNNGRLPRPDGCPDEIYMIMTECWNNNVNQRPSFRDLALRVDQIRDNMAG
Method: as §1

T1 sequence (P23458 whole entry): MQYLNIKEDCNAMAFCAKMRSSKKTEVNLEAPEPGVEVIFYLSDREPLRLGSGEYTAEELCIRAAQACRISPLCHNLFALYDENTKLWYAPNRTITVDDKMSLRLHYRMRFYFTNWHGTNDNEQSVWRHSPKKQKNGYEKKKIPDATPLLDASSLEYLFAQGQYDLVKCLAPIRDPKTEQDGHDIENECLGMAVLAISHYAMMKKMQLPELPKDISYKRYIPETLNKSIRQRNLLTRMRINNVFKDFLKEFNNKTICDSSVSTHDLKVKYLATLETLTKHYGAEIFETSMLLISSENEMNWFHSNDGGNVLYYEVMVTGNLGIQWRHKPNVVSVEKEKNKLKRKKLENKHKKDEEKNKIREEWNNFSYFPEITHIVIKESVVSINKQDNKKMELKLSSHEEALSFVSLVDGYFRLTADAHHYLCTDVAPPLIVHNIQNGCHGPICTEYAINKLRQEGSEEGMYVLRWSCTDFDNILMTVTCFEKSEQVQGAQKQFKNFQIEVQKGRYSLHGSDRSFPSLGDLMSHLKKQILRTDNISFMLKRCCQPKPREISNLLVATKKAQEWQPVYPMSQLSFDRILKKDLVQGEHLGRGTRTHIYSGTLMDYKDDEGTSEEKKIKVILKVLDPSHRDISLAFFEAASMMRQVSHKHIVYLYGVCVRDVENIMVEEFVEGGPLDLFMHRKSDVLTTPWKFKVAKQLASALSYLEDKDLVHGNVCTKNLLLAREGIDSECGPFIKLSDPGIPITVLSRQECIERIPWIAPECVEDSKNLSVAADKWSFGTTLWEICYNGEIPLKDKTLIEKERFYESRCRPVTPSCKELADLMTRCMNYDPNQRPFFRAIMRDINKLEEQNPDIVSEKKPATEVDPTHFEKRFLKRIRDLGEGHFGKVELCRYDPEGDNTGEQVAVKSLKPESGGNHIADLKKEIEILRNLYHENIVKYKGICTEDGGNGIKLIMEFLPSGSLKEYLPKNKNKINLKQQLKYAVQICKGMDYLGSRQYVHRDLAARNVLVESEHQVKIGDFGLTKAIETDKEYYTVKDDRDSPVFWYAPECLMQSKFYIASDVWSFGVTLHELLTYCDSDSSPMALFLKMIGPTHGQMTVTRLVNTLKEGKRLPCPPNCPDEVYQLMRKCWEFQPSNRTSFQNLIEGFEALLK

Structure (SMILES) | IC50 (JAK1) | IC50 (JAK2V617F)
Cc1cnc(Nc2cnn(C3CCCOC3)c2)nc1-c1ccc(C(=O)NCC#N)cc1 (stereo not drawn) [Example 67, N-(cyanomethyl)-4-(5-methyl-2-((1-(tetrahydro-2H-pyran-3-yl)-1H-pyrazol-4-yl)amino)pyrimidin-4-yl)benzamide] | 17 nM | 27 nM
C[C@H](C#N)NC(=O)c1ccc(-c2nc(Nc3cnn(C4CCN(C)CC4)c3)ncc2F)cc1 [Example 63, (R)—N-(1-Cyanoethyl)-4-(5-fluoro-2-((1-(1-methylpiperidin-4-yl)-1H-pyrazol-4-yl)amino)pyrimidin-4-yl)benzamide] | 293 nM | 842 nM
CC(C)(C)C(=O)N1CCC(n2cc(Nc3ncc(F)c(-c4ccc(C(=O)NCC#N)cc4)n3)cn2)CC1 [Example 56, N-(cyanomethyl)-4-(5-fluoro-2-((1-(1-pivaloylpiperidin-4-yl)-1H-pyrazol-4-yl)amino)pyrimidin-4-yl)benzamide] | 167 nM | 52.6 nM
N#CCNC(=O)c1ccc(-c2nc(Nc3cnn(C4CCOCC4)c3)ncc2C(F)(F)F)cc1 [Example 153, N-(cyanomethyl)-4-(2-((1-(tetrahydro-2H-pyran-4-yl)-1H-pyrazol-4-yl)amino)-5-(trifluoromethyl)pyrimidin-4-yl)benzamide] | 235 nM | 283 nM
Cc1cnc(Nc2cnn(C3CCOCC3)c2)nc1-c1ccc(C(=O)NCCC(F)(F)F)cc1 [Example 77, 4-(5-Methyl-2-((1-(tetrahydro-2H-pyran-4-yl)-1H-pyrazol-4-yl)amino)pyrimidin-4-yl)-N-(3,3,3-trifluoropropyl)benzamide] | 43.5 nM | 76.3 nM
Cc1cnc(Nc2cnn(C3CN(C(=O)C4CC4)C3)c2)nc1-c1ccc(C(=O)N[C@@H](C)C#N)cc1 [Example 71, (S)—N-(1-cyanoethyl)-4-(2-((1-(1-(cyclopropanecarbonyl)azetidin-3-yl)-1H-pyrazol-4-yl)amino)-5-methylpyrimidin-4-yl)benzamide] | 26 nM | 42.8 nM
CC(=O)N1CC(n2cc(Nc3ncc(C)c(-c4ccc(C(=O)N[C@@H](C)C#N)cc4)n3)cn2)C1 [Example 157] | 22.2 nM | 33.1 nM
Cc1cnc(Nc2cnn(C3CC4CCC(C3)N4C(=O)C3(C)CC3)c2)nc1-c1ccc(C(=O)NCC#N)cc1 [Example 65, N-(cyanomethyl)-4-(5-methyl-2-((1-((1R,3r,5S)-8-(1-methylcyclopropanecarbonyl)-8-azabicyclo[3.2.1]octan-3-yl)-1H-pyrazol-4-yl)amino)pyrimidin-4-yl)benzamide] | 27.2 nM | 4.54 nM
Cc1cnc(Nc2cnn(C3CCOCC3)c2)nc1-c1ccc(C(=O)N[C@H](C)C#N)cc1 [Example 96, (R)—N-(1-cyanoethyl)-4-(5-methyl-2-((1-(tetrahydro-2H-pyran-4-yl)-1H-pyrazol-4-yl)amino)pyrimidin-4-yl)benzamide] | 51.5 nM | 84.2 nM
Cc1cnc(Nc2cnn([C@H]3CC[C@@H](C#N)CC3)c2)nc1-c1ccc(C(=O)N[C@@H](C)C#N)cc1 [Example 149, 4-(2-((1-(Cis-4-cyanocyclohexyl)-1H-pyrazol-4-yl)amino)-5-methylpyrimidin-4-yl)-N—((S)-1-cyanoethyl)benzamide] | 15 nM | 30.5 nM
N#CCNC(=O)c1ccc(-c2nc(Nc3cnn(C4CC4)c3)ncc2C(F)F)cc1 [Example 110, N-(cyanomethyl)-4-(2-((1-cyclopropyl-1H-pyrazol-4-yl)amino)-5-(difluoromethyl)pyrimidin-4-yl)benzamide] | 152 nM | 556 nM
C[C@@H](C#N)NC(=O)c1ccc(-c2nc(Nc3cnn(C4CC4)c3)ncc2Cl)cn1 [Example 121, (S)-5-(5-chloro-2-((1-cyclopropyl-1H-pyrazol-4-yl)amino)pyrimidin-4-yl)-N-(1-cyanoethyl)picolinamide] | 67.4 nM | 245 nM
Cc1cnc(Nc2cnn(C3CCOC(C)C3)c2)nc1-c1ccc(C(=O)NCC#N)cc1 (stereo not drawn) [Example 72, N-(cyanomethyl)-4-(5-methyl-2-((1-(2-methyltetrahydro-2H-pyran-4-yl)-1H-pyrazol-4-yl)amino)pyrimidin-4-yl)benzamide] | 28 nM | 33.6 nM
Cc1cnc(Nc2cnn(C3CCOCC3)c2)nc1-c1ccc(C(=O)NCC(C)(C)C#N)cc1 [Example 133, N-(2-cyano-2-methylpropyl)-4-(5-methyl-2-((1-(tetrahydro-2H-pyran-4-yl)-1H-pyrazol-4-yl)amino)pyrimidin-4-yl)benzamide] | 18.9 nM | 35.1 nM
Cc1cnc(Nc2cnn(C3CC4CCC(C3)N4C(=O)C3CC3)c2)nc1-c1ccc(C(=O)NCC#N)cc1 [Example 64, N-(cyanomethyl)-4-(2-((1-((1R,3r,5S)-8-(cyclopropanecarbonyl)-8-azabicyclo[3.2.1]octan-3-yl)-1H-pyrazol-4-yl)amino)-5-methylpyrimidin-4-yl)benzamide] | 33.7 nM | 40.9 nM

Now those with a lower IC50 (JAK1), led by results:

IC50 (JAK1) | IC50 (JAK2V617F) | Structure (SMILES)
2.22 nM | 3.03 nM | CC[C@@H](C#N)NC(=O)c1ccc(-c2nc(Nc3cnn(C4CCOCC4)c3)ncc2C)cc1 [Example 201, (S)—N-(1-cyanopropyl)-4-(5-methyl-2-((1-(tetrahydro-2H-pyran-4-yl)-1H-pyrazol-4-yl)amino)pyrimidin-4-yl)benzamide]
7.47 nM | 6.93 nM | Cc1cnc(Nc2cnn(C3CCOCC3)c2)nc1-c1ccc(C(=O)NCC(F)(F)F)cc1 [Example 76, 4-(5-Methyl-2-((1-(tetrahydro-2H-pyran-4-yl)-1H-pyrazol-4-yl)amino)pyrimidin-4-yl)-N-(2,2,2-trifluoroethyl)benzamide]
14.4 nM | 4.18 nM | Cc1cnc(Nc2cnn(C3CCN(C(=O)C4(O)CC4)CC3)c2)nc1-c1ccc(C(=O)NCC#N)cc1 [Example 74, N-(cyanomethyl)-4-(2-((1-(1-(1-hydroxycyclopropanecarbonyl)piperidin-4-yl)-1H-pyrazol-4-yl)amino)-5-methylpyrimidin-4-yl)benzamide]
5.02 nM | 3.06 nM | CC[C@@H](C#N)NC(=O)c1ccc(-c2nc(Nc3cnn(C4CCOCC4)c3)ncc2Cl)cc1 [Example 203, (S)-4-(5-chloro-2-((1-(tetrahydro-2H-pyran-4-yl)-1H-pyrazol-4-yl)amino)pyrimidin-4-yl)-N-(1-cyanopropyl)benzamide]
5.65 nM | 33.5 nM | Cc1cnc(Nc2cnn(C3CC3)c2)nc1-c1ccc(C(=O)N[C@H](C#N)C2CC2)cc1 [Example 194, (S)—N-(cyano(cyclopropyl)methyl)-4-(2-((1-cyclopropyl-1H-pyrazol-4-yl)amino)-5-methylpyrimidin-4-yl)benzamide]
11.1 nM | 13.2 nM | Cc1cnc(Nc2cnn(C3CCC(F)(F)CC3)c2)nc1-c1ccc(C(=O)NCC#N)cc1 [Example 84, N-(cyanomethyl)-4-(2-((1-(4,4-difluorocyclohexyl)-1H-pyrazol-4-yl)amino)-5-methylpyrimidin-4-yl)benzamide]
14.3 nM | 21.9 nM | Cc1cnc(Nc2cnn(C3C[C@H]4CC[C@@H](C3)O4)c2)nc1-c1ccc(C(=O)NCC#N)cc1 (stereo partly drawn) [Example 69, 4-(2-((1-((1R,5S)-8-oxabicyclo[3.2.1]octan-3-yl)-1H-pyrazol-4-yl)amino)-5-methylpyrimidin-4-yl)-N-(cyanomethyl)benzamide]
2.97 nM | 23.9 nM | CCC[C@@H](C#N)NC(=O)c1ccc(-c2nc(Nc3cnn(C4CC4)c3)ncc2C)cc1 [Example 202, (S)—N-(1-cyanobutyl)-4-(2-((1-cyclopropyl-1H-pyrazol-4-yl)amino)-5-methylpyrimidin-4-yl)benzamide]
13.5 nM | 14.1 nM | N#CCNC(=O)c1ccc(-c2nc(Nc3cnn(C4CCOCC4)c3)ncc2Cl)cc1 [Example 146, 4-(5-chloro-2-((1-(tetrahydro-2H-pyran-4-yl)-1H-pyrazol-4-yl)amino)pyrimidin-4-yl)-N-(cyanomethyl)benzamide]
13.7 nM | 34.6 nM | Cc1cnc(Nc2cnn([C@H]3CC[C@@H](C#N)CC3)c2)nc1-c1ccc(C(=O)NCC#N)cc1 [Example 148, 4-(2-((1-(Cis-4-cyanocyclohexyl)-1H-pyrazol-4-yl)amino)-5-methylpyrimidin-4-yl)-N-(cyanomethyl)benzamide]
10.8 nM | 19.9 nM | Cc1cnc(Nc2cnn([C@H]3CC[C@H](C#N)CC3)c2)nc1-c1ccc(C(=O)NCC#N)cc1 [Example 147, 4-(2-((1-(Trans-4-cyanocyclohexyl)-1H-pyrazol-4-yl)amino)-5-methylpyrimidin-4-yl)-N-(cyanomethyl)benzamide]
4.14 nM | 27.6 nM | Cc1cnc(Nc2cnn(C3CC3)c2)nc1-c1ccc(C(=O)N[C@H](C#N)C(C)C)cc1 [Example 197, (S)—N-(1-Cyano-2-methylpropyl)-4-(2-((1-cyclopropyl-1H-pyrazol-4-yl)amino)-5-methylpyrimidin-4-yl)benzamide]
